# From US7964624B1, “Inhibitors of serine proteases” (priority 2005, dated 2011)
# Key:
# HCV NS3 protease domain = target: T1, HCV NS3 protease domain (Hepatitis C virus genotype 1b, UniProt Q9WMX2); assay: biochemical; details: Enzyme Assay 1 (HCV NS3 Protease Domain Peptide Cleavage Assay) activity, apparent Ki class
# T1 construct: The first 181 amino acids of NS3 (residues 1027-1207 of the viral polyprotein); hexa-histidine (C); made in house; host or cells: E. coli BL21/DE3 pLysS
# [1] = target: T2, full-length hepatitis C viral protein NS3•4A (Hepatitis C virus genotype 1a, UniProt P27958); assay: biochemical; design: species or system HCV sub-type strain 1a; details: Enzyme Assay 2 (HCV NS3 Peptide Cleavage Assay) activity, apparent Ki class
# T2 construct: hexa-histidine (N); made in house; host or cells: Sf9 insect cells (baculovirus, pVL1392)
SMILES,Ki (HCV NS3 protease domain) [nM],Ki [1] [nM]
CCC[C@H](NC(=O)[C@@H]1C[C@]2(CC(c3ccc(C#N)cc3)=NO2)CN1C(=O)[C@@H](NC(=O)CC1CCOCC1)C(C)(C)C)C(=O)C(=O)NC1CC1 [Compound 177],> 500,100 to 500
CCC[C@H](NC(=O)[C@@H]1C[C@]2(CC(c3cccc(Cl)c3)=NO2)CN1C(=O)[C@@H](NC(=O)CC1CCCCC1)C(C)(C)C)C(=O)C(=O)Nc1ccc2c(C)cc(=O)[nH]c2c1 [Compound 181],> 500,> 500
CCC[C@H](NC(=O)[C@@H]1C[C@]2(CC(c3cccc(Cl)c3)=NO2)CN1C(=O)[C@@H](NC(=O)CC1CCCCC1)C(C)(C)C)C(=O)C(=O)N(C)CC [Compound 182],> 500,> 500
CCC[C@H](NC(=O)[C@@H]1C[C@]2(CC(c3cccc(Cl)c3)=NO2)CN1C(=O)[C@H](Cc1ccsc1)NC(=O)CC1CCCCC1)C(=O)C(=O)NC1CC1 [Compound 185],> 500,100 to 500
CCC[C@H](NC(=O)[C@@H]1C[C@]2(CC(c3cccc(Cl)c3)=NO2)CN1C(=O)[C@@H](NC(=O)CC1CCCCC1)C(C)(C)C)C(=O)C(=O)N1CC[C@@H](NC(C)=O)C1 [Compound 186],> 500,> 500
CN(C)C(=O)C(=O)[C@@H](CC1CCC1)NC(=O)[C@@H]1C[C@]2(CC(c3cccc(Cl)c3)=NO2)CN1C(=O)[C@@H](NC(=O)CC1CCCCC1)C(C)(C)C [Compound 188],> 500,> 500
C=C[C@@H]1C[C@]1(NC(=O)[C@@H]1C[C@]2(CC(c3cccc(Cl)c3)=NO2)CN1C(=O)[C@@H](NC(=O)OC1CCCC1)C(C)(C)C)C(=O)NS(=O)(=O)C1CC1 [Compound 190],100 to 500,< 100
CCC[C@H](NC(=O)[C@@H]1C[C@]2(CC(c3ccc4c(c3)CCC(C)(C)O4)=NO2)CN1C(=O)[C@@H](NC(=O)CC1CCCCC1)C(C)(C)C)C(=O)C(=O)NC1CC1 [Compound 204],100 to 500,100 to 500
CCC[C@H](NC(=O)[C@@H]1C[C@]2(CC(c3cccc(Cl)c3)=NO2)CN1C(=O)[C@@H](NC(=O)CC1CCCCC1)C(C)(C)C)C(=O)C(=O)NCCC(=O)Nc1cc(OC)c2ccccc2c1 [Compound 206],100 to 500,100 to 500
CCC[C@H](NC(=O)[C@@H]1C[C@]2(CC(c3cccc(Cl)c3)=NO2)CN1C(=O)[C@H](Cc1ccc(OC)cc1)NC(=O)CC1CCCCC1)C(=O)C(=O)NC1CC1 [Compound 213],> 500,> 500
CCC[C@H](NC(=O)[C@@H]1C[C@]2(CC(c3cccc(Cl)c3)=NO2)CN1C(=O)[C@@H](NC(=O)C1CCC(=O)N1)C(C)C)C(=O)C(=O)NC1CC1 (stereo partly shown) [Compound 218],> 500,> 500
CCC[C@H](NC(=O)[C@@H]1C[C@]2(CC(c3cccc(Cl)c3)=NO2)CN1C(=O)[C@@H](NC(=O)CC1CCCCC1)C(C)(C)C)C(=O)C(=O)NCCc1ccc2c(c1)OCO2 [Compound 221],100 to 500,100 to 500
CCC[C@H](NC(=O)[C@@H]1C[C@]2(CC(c3cccc(Cl)c3)=NO2)CN1C(=O)C1(C(N)=O)CC1)C(=O)C(=O)NC1CC1 [Compound 227],> 500,> 500
CCC[C@H](NC(=O)[C@@H]1C[C@]2(CC(c3cccc(Cl)c3)=NO2)CN1C(=O)[C@@H](NC(=O)CC1(O)CCCCC1)C(C)(C)C)C(=O)C(=O)NC1CC1 [Compound 233],100 to 500,< 100
CCC[C@H](NC(=O)[C@@H]1C[C@]2(CC(c3cccc(Cl)c3)=NO2)CN1C(=O)[C@@H](NC(=O)[C@@H]1CCC(=O)N1C(C)C)C(C)(C)C)C(=O)C(=O)NC1CC1 [Compound 241],> 500,100 to 500
CCC[C@H](NC(=O)[C@@H]1C[C@]2(CC(c3cccc(Cl)c3)=NO2)CN1C(=O)CCCC(=O)Nc1ccc(C)cc1C)C(=O)C(=O)NC1CC1 [Compound 246],> 500,> 500
CCC[C@H](NC(=O)[C@@H]1C[C@]2(CC(c3cccc(Cl)c3)=NO2)CN1C(=O)c1ccc(Cl)cc1Nc1ccc(OC)nc1)C(=O)C(=O)NC1CC1 [Compound 248],> 500,> 500
CCC[C@H](NC(=O)[C@@H]1C[C@]2(CC(c3cccc(Cl)c3)=NO2)CN1C(=O)[C@@H](NC(=O)C=C1CCCCC1)C(C)(C)C)C(=O)C(=O)NC1CC1 [Compound 252],100 to 500,< 100
CCC[C@H](NC(=O)[C@@H]1C[C@]2(CC(c3cccc(Cl)c3)=NO2)CN1C(=O)[C@@H](NC(=O)CC1CCCCC1)C(C)(C)C)C(=O)C(=O)N(C)C [Compound 253],> 500,> 500
CCC[C@H](NC(=O)[C@@H]1C[C@]2(CC(c3cccc(Cl)c3)=NO2)CN1C(=O)[C@@H](NC(=O)CC1CCCCC1)C(C)(C)C)C(=O)C(=O)N[C@@H](C)c1cccc(OC)c1 [Compound 255],100 to 500,100 to 500
CCC[C@H](NC(=O)[C@@H]1C[C@]2(CC(c3cccc(Cl)c3)=NO2)CN1C(=O)[C@@H](NC(=O)CC1CCCCC1)C(C)(C)C)C(=O)C(=O)NCC1CC1 [Compound 265],> 500,100 to 500

SMILES,Ki (HCV NS3 protease domain) [nM],Ki [1] [nM]
C#CC[C@H](C(=O)N[C@H](C(=O)N1C[C@@]2(CC(c3cccc(Cl)c3)=NO2)C[C@H]1C(=O)N[C@@H](CCC)C(=O)C(=O)NC1CC1)C(C)(C)C)C1CCCCC1 [Compound 266],100 to 500,100 to 500
CC(C)(C)[C@H](NC(=O)CC1CCCCC1)C(=O)N1C[C@@]2(CC(c3cccc(Cl)c3)=NO2)C[C@H]1C(=O)NC(CC1CCC1)C(=O)C(=O)NCC(F)(F)F (stereo partly shown) [Compound 268],100 to 500,> 500
C=C[C@@H]1C[C@]1(NC(=O)[C@@H]1C[C@]2(CC(c3cccc(Cl)c3)=NO2)CN1C(=O)[C@@H](NC(=O)O[C@H]1CCOC1)C(C)(C)C)C(=O)O [Compound 269],> 500,> 500
CCC[C@H](NC(=O)[C@@H]1C[C@]2(CC(c3cccc(Cl)c3)=NO2)CN1C(=O)[C@@H](NC(=O)[C@@H]1C[C@H]1c1ccccc1)C(C)(C)C)C(=O)C(=O)NC1CC1 [Compound 271],100 to 500,< 100
CCC[C@H](NC(=O)[C@@H]1C[C@]2(CC(c3cccc(Cl)c3)=NO2)CN1C(=O)[C@@H](NC(=O)CC1CCCCC1)C(C)(C)C)C(=O)C(=O)NC(C)C [Compound 275],100 to 500,100 to 500
CCC[C@H](NC(=O)[C@@H]1C[C@]2(CC(c3cccc(Cl)c3)=NO2)CN1C(=O)[C@@H](NC(=O)CC1CCCCC1)C(C)(C)C)C(=O)C(=O)NC[C@H]1CCCO1 [Compound 277],> 500,100 to 500
CCC[C@H](NC(=O)[C@@H]1C[C@]2(CC(c3cccc(Cl)c3)=NO2)CN1C(=O)[C@@H](CC(=O)NC(C)C)C(C)C)C(=O)C(=O)NC1CC1 [Compound 280],> 500,> 500
COc1cc(OC)c(C2=NO[C@]3(C2)C[C@@H](C(=O)NC(CC2CCC2)C(=O)C(=O)NC2CC2)N(C(=O)[C@@H](NC(=O)CC2CCOCC2)C(C)(C)C)C3)cc1Cl (stereo partly shown) [Compound 282],> 500,100 to 500
CCC[C@H](NC(=O)[C@@H]1C[C@]2(CC(c3cccc(Cl)c3)=NO2)CN1C(=O)[C@@H](NC(=O)[C@@H](C)C1CCCCC1)C(C)(C)C)C(=O)C(=O)NC1CC1 [Compound 284],100 to 500,100 to 500
CCC[C@H](NC(=O)[C@@H]1C[C@]2(CC(c3cccc(Cl)c3)=NO2)CN1C(=O)[C@H](Cc1ccccc1C(F)(F)F)NC(=O)CC1CCCCC1)C(=O)C(=O)NC1CC1 [Compound 289],> 500,100 to 500
CCC[C@H](NC(=O)[C@@H]1C[C@]2(CC(c3cncc(Cl)c3)=NO2)CN1C(=O)[C@@H](NC(=O)CC1CCCCC1)C(C)(C)C)C(=O)C(=O)NC1CC1 [Compound 292],100 to 500,< 100
CCC[C@H](NC(=O)[C@@H]1C[C@]2(CC(c3cccc(Cl)c3)=NO2)CN1C(=O)[C@@H](NC(=O)CC1CCCCC1)C(C)(C)C)C(=O)C(=O)Nc1ccon1 [Compound 293],> 500,> 500
CCC[C@H](NC(=O)[C@@H]1C[C@]2(CC(c3cccc(Cl)c3)=NO2)CN1C(=O)[C@@H](NC(=O)CC1CCCCC1)C(C)(C)C)C(=O)C(=O)N[C@H](C)c1ccccc1 [Compound 296],> 500,> 500
CCC[C@H](NC(=O)[C@@H]1C[C@]2(CC(c3cccc(Cl)c3)=NO2)CN1C(=O)[C@@H](NC(=O)CC1CCCCC1)C(C)(C)C)C(=O)C(=O)NCc1cccc(-n2cccn2)c1 [Compound 298],100 to 500,100 to 500
CCC[C@H](NC(=O)[C@@H]1C[C@]2(CC(c3cccc(Cl)c3)=NO2)CN1C(=O)[C@@H](NC(=O)CC1CCCCC1)C(C)(C)C)C(=O)C(=O)NC(CC)CC [Compound 300],100 to 500,100 to 500
CCC[C@H](NC(=O)[C@@H]1C[C@]2(CC(c3cccc(Cl)c3)=NO2)CN1C(=O)[C@@H](NC(=O)CC1CCCCC1)C(C)(C)C)C(=O)C(=O)NCCc1c[nH]c2ccc(OC)cc12 [Compound 302],100 to 500,100 to 500
CCC[C@H](NC(=O)[C@@H]1C[C@]2(CC(c3cccc(Cl)c3)=NO2)CN1C(=O)[C@@H](NC(=O)CC1CCN(C(C)=O)CC1)C(C)(C)C)C(=O)C(=O)NC1CC1 [Compound 304],100 to 500,< 100
CCC[C@H](NC(=O)[C@@H]1C[C@]2(CC(c3cc(Cl)c(OC)cc3OC)=NO2)CN1C(=O)[C@@H](NC(=O)CC1CCCCC1)C(C)(C)C)C(=O)C(=O)NC1CC1 [Compound 307],100 to 500,< 100
CCC[C@H](NC(=O)[C@@H]1C[C@]2(CC(c3cccc(Cl)c3)=NO2)CN1C(=O)CCNS(=O)(=O)c1ccc(NC(C)=O)cc1)C(=O)C(=O)NC1CC1 [Compound 309],> 500,> 500
CCC[C@H](NC(=O)[C@@H]1C[C@]2(CC(c3cnc(OC)c(Cl)c3)=NO2)CN1C(=O)[C@@H](NC(=O)CC1CCCCC1)C(C)(C)C)C(=O)C(=O)NC1CC1 [Compound 312],< 100,< 100
